Experimental findings from patent US10550399B2, “Plant transformation method using plant growth inhibiting hormone” (KANEKA CORPORATION, priority 2012, dated 2020) are described below.

Experiment [1] deals with wheat seeds. Kind of experiment: In planta Agrobacterium (LBA4404, pIG121-1) transformation of wheat seeds under application of a plant growth-inhibiting hormone. The experiment is classed as in vivo, wheat (Triticum aestivum L.). The conditions noted are these: for Transformation efficiency (T0 generation×T1 generation): hormone 100 μM in bacterial solution, variety Yumechikara, shoot length about 2 mm, soaked about 20 min, co-culture 22° C. 2 days. On the procedure: Transformation efficiency for the transformed plant thus obtained can be determined. Transformation efficiency (T0 generation×T1 generation) is determined by multiplying transformation efficiency for the T0 generation (the number of transformed plants of T0 generation/the number of plants subjected to transformation) and transformation efficiency for the T1 generation (the number of transformed plants of T1 generation/(the number of plants of T1 generation subjected to the verification for incorporation of foreign genes into genomes).
The Agrobacterium into which pIG121-1 had been introduced prepared above were cultured in LB medium containing kanamycin and streptomycin (50 mg/1 each) at 28° C. for 18 hours to prepare an Agrobacterium solution. Through this culture, the transformed Agrobacterium carrying pIG121-1 were selected on the basis of functions of the kanamycin resistance gene and the streptomycin resistance gene existing outside the T-DNA region of pIG121-1.
Abscisic acid (final concentration: 100 μM) was added to the bacterial solution prepared in the manner described above, and the resulting bacterial solution was used below as an Agrobacterium solution for inoculation.
Pretreatment of seeds was carried out by soaking wheat seeds (variety: Yumechikara (Wheat Nourin 172)) in 70% ethanol for 5 minutes, followed by shaking in a 20% antiformin solution for 10 minutes. The seeds were washed with water to remove the antiformin solution, wrapped in moistened Kim towel, and then cultured at 25° C. for 36 to 40 hours for germination.
Subsequently, a portion around the shoot of the seed (shoot length: about 2 mm) was pierced with a needle (diameter: 0.71 mm) to a depth of about 1 mm to provide a pore. The seeds with thus wounded meristems were soaked in the Agrobacterium solution prepared above for about 20 minutes to inoculate the seeds with the Agrobacterium. Thereafter, the seeds were removed from the Agrobacterium solution, mounted on moistened Kim towel, and then cultured in a covered petri dish at 22° C. for 2 days (co-culture). Thus, the seeds were infected with Agrobacterium. Next, in order to disinfect Agrobacterium, the co-cultured seeds were soaked in an aqueous solution of cefotaxime (1,000 ppm) and then shaken at room temperature for 2 hours. Subsequently, the seeds were removed from the aqueous solution of cefotaxime, mounted on moistened Kim towel, and then grown in a covered petri dish at 25° C. for 2 days. The seeds were transferred to a pot containing culture soil and then grown at 25° C. under the long-day conditions (a light period of 16 hours and a dark period of 8 hours).
When the seeds grew to the 5- to 6-leaf stage, genome PCR was carried out to select transformants.
Considering that Yumechikara is an autumn wheat variety, the obtained transformants were subjected to vernalization at 4° C. for 1.5 months to facilitate flower bud formation. Subsequently, the transformants (T0 generation) were self-crossed to obtain T1 seeds, and gene introduction and gene expression in the T1 generation were verified.
Gene introduction at the T1 generation was verified via genome PCR under the same conditions as with the case of the T0 generation. […] A band of interest was detected in 3 of the 14 individuals subjected to the genome PCR.
Jasmonic acid (final concentration: 100 μM) was added to the bacterial solution prepared in the manner described above, and the resulting bacterial solution was used below as an Agrobacterium solution for inoculation.
Subsequently, a portion around the shoot of the seed (shoot length: about 2 mm) was pierced with a needle (diameter: 0.71 mm) to a depth of about 1 mm to provide a pore. The seeds with thus wound meristems were soaked in the Agrobacterium solution prepared above for about 20 minutes to inoculate the seeds with the Agrobacterium. […]

The subject of experiment [2] is soybeans, variety "Toyomusume". Briefly: In planta Agrobacterium (LBA4404, pIG121-1) transformation of soybean axillary buds with abscisic acid. The conditions noted are these: abscisic acid 100 μM, axillary buds of plants 14 days after germination. The class given is in vivo, soybean (Glycine max). As to the method: Plant transformation was carried out in the same manner as in Example 1, except that a variety “Toyomusume” of soybeans was used and axillary buds of the plants 14 days after germination were inoculated with Agrobacterium, and then gene introduction and gene expression in the T0 generation were verified.

The test system of experiment [3] is maize seed. Kind of experiment: In planta transformation of maize seeds using pIG121-1-carrying Agrobacterium with abscisic acid. The experiment is classed as in vivo, maize (Zea mays). The note with it: abscisic acid 100 μM. As to the method:
Seeds of maize (Zea mays) were washed with sterile water 2 or 3 times to wash the red disinfectant away from the seed coat. The washed seeds were soaked in sterile water and incubated at 25° C. for 2 days. Water was exchanged with fresh water once during incubation. Thus, the seeds absorbed water and the embryonic portions became white. These seeds were used for the experiment described below. A bacterial solution containing pIG121-1-carrying Agrobacterium and abscisic acid (final concentration: 100 μM) was prepared as an Agrobacterium solution for inoculation in the same manner as in Example 1.
With the use of a needle (φ 0.71 mm), the shoot (length: 1 mm) of the embryo (longer diameter: about 1 cm) of the maize seed was pierced 4 times on the apex, in which the meristem was considered to be present, to a depth of 0.5 mm to 1 mm to provide 4 pores in an area of about 2 mm square. Thereafter, the Agrobacterium solution for inoculation prepared above was applied dropwise to the pores using a pipette to inoculate the seeds with Agrobacterium.
Subsequently, a filter paper was placed in a petri dish and moistened with water. The maize seeds inoculated with Agrobacterium were placed on the filter paper and the petri dish was covered. The petri dish was then placed in an incubator at 25° C., and incubation was carried out in the dark for 2 days. After co-culture was conducted for 2 days, the seeds were sowed in culture soil and grown.
Gene introduction in the T0 generation was verified in the same manner as in Example 1. Plants (5-leaf stage) 20 days after transformation were used for genomic PCR. […] A 544-bp PCR product indicating GUS gene introduction was detected in 2 plants.

The test system of experiment [4] is soybeans, variety "Toyomusume". Kind of experiment: In planta transformation of soybeans using the Agrobacterium tumefaciens M21 mutant with abscisic acid. The experiment is classed as in vivo, soybean (Glycine max). The note with it: abscisic acid 100 μM. On the procedure:
Plant transformation was carried out in the same manner as in Example 8, except that the Agrobacterium tumefaciens M21 mutant was used, and then gene introduction in the T0 generation was verified.
The Agrobacterium tumefaciens M21 mutant (hereafter referred to as “the M21 mutant”) was obtained via mutation of the Agrobacterium tumefaciens A208 strain (C58 chromosome, nopaline T37 pTi) with the use of transposon 5 (Tn5) (Majumder, P. et al., J. Biosci. Bioeng., 90: 328-331, 2000; WO 2005/024034). In the M21 mutant, Tn5 is inserted into the tryptophan monooxygenase gene involved in biosynthesis of indoleacetic acid (IAA) in the T-DNA region of the Ti plasmid. This would cause hormone imbalance in plants transformed via infection with the M21 mutant, which would lead to phenotypic changes. Thus, the presence or absence of the transformation was easily determined via visual inspection.
Transformation efficiency (T0 generation) achieved by the method of the present invention was 75%.

Experiment [5] deals with wheat seeds. Briefly: In planta Agrobacterium (LBA4404, pIG121-1) transformation of wheat seeds under application of a plant growth-inhibiting hormone. The experiment is classed as in vivo, wheat (Triticum aestivum L.).
Setting [6] is: 13 plants subjected to transformation.
[7] abbreviates: 12 plants subjected to transformation.
The mark [8] stands for this setting: abscisic acid 100 μM, Yumechikara, shoot about 2 mm, co-culture 22° C., genome PCR.

Structures are written as SMILES.

Regarding `CC/C=C\C[C@H]1C(=O)CC[C@@H]1CC(=O)O` [jasmonic acid], the “Transformation efficiency (T0 generation×T1 generation)” value in experiment [1] stood at 2.4%.
Take `CC1=CC(=O)CC(C)(C)[C@@]1(O)/C=C/C(C)=C\C(=O)O` [abscisic acid]: the “Transformation efficiency (T0 generation)” value worked out at 30% in experiment [2]; 15.4% in experiment [3] (shoot 1 mm pierced 4 times, co-culture 25° C. 2 days, genomic PCR 20 days after transformation, 13 plants); 75% in experiment [4] (axillary buds, tumorigenesis by visual inspection, 12 plants). The “Number of untransformed plants” value in experiment [3] (setting [6]) worked out at 11; in experiment [4] (setting [7]), 3. In addition, the “Untransformed plants, percent” value is 84.6% in experiment [3] (setting [6]) and 25% in experiment [4] (setting [7]). Moreover, the “Number of transformed plants” value in experiment [3] (13 plants subjected to transformation, 544-bp GUS PCR product) is listed as 2; in experiment [4] (setting [7]), 9. For the same molecule, the “Transformation efficiency (T0 generation×T1 generation)” value in experiment [5] (abscisic acid 100 μM and Tween 20 0.1%, Yumechikara, shoot 1 mm or less, vacuum treatment 20 min, co-culture 28° C.) is 5.1%; in experiment [5] (abscisic acid 100 μM, Tween 20 0.1%, acetosyringone 100 μM, Yumechikara, shoot 1 mm or less, vacuum treatment, co-culture 28° C.), 7.2%; in experiment [5] (as Example 4 (abscisic acid 100 μM, Tween 20, acetosyringone, vacuum, 28° C.) but wheat variety Haruyokoi) it was 10.2%; in experiment [5] (as Example 4 but 10 μM abscisic acid, Yumechikara), 6.3%; in experiment [5] (as Example 4 but 300 μM abscisic acid, Yumechikara), 7.0%; in experiment [1] it was 3.1%. In addition, in experiment [1] (setting [8]), the “Transformation efficiency (T0)” value was 14.3%. Besides, the “Transformation efficiency (T1)” value in experiment [1] (setting [8]) is given as 21.4%. Also, in experiment [1] (abscisic acid 100 μM, of the 14 individuals subjected to genome PCR), the “Individuals with band of interest, T1 generation” value was 3. The “Individuals with GUS gene band (544 bp), T0 generation” value in experiment [1] (abscisic acid 100 μM, of the 14 transformed individuals, genome PCR) was found to be 2.
